Test results published in the NIST ThermoML archive (doi:10.1021/je200565u).
± gives the expanded uncertainty stated by the source.

Conditions: Liquid, Closed cell (Static) method

Question: For `CCOCCO` [2-ethoxyethan-1-ol], which “vapor or sublimation pressure” value (406.2 K) is on record?
Answer: The value was 93.3 ± 0.8 kPa.

Question: What about the “vapor or sublimation pressure” value (406.9 K) of the same compound?
Answer: Its value is 93.3 ± 0.8 kPa.

Question: What about the “vapor or sublimation pressure” value (407.8 K) of the same compound?
Answer: Its value is 93.6 ± 0.8 kPa.

Question: What does the source list for `CCOCCOC(C)=O` [2-ethoxyethyl ethanoate]?
Answer: vapor or sublimation pressure (427.8 K): 93.3 ± 0.8 kPa; vapor or sublimation pressure (428.3 K): 93.7 ± 0.8 kPa; vapor or sublimation pressure (428.6 K): 93.3 ± 0.8 kPa

Question: What does the source list for `CCCCOCCOC(C)=O` [2-butoxyethyl acetate]?
Answer: vapor or sublimation pressure (463 K): 93.7 ± 0.8 kPa; vapor or sublimation pressure (463.3 K): 93.6 ± 0.8 kPa; vapor or sublimation pressure (464.2 K): 93.9 ± 0.8 kPa

Question: Which “vapor or sublimation pressure” value (441.3 K) does the source give for `CCCCOCCO` [2-butoxyethan-1-ol] here?
Answer: Its value is 93.9 ± 0.8 kPa.

Question: What about the “vapor or sublimation pressure” value (441.5 K) of the same compound?
Answer: Its value is 93.6 ± 0.8 kPa.

Question: And the “vapor or sublimation pressure” value (442.1 K)?
Answer: The value was 94.1 ± 0.8 kPa.
